# Patent US4496591A, “Insecticidal bis-carbamate sulfides” (priority 1981, dated 1985)
# Tests used:
# Format in all cases: in vivo
# [1] = tested on: housefly adults (Musca domestica); assay: Comparative residual effect in soil; conditions: for Residual effect in soil (mortality), 0 weeks / Residual Activity (weeks): soil concentration four times LD50, housefly; for Residual effect in soil (mortality), 0 weeks: 24 hours; for Residual effect in soil (mortality), 1 week / Residual effect in soil (mortality), 4 weeks: soil concentration four times LD50, 25° C., 90% relative humidity; for Residual effect in soil (mortality), 1 week: 10080 min; for Residual effect in soil (mortality), 4 weeks: 40320 min
# Protocol: Selected species of the new compounds were evaluated for their residual pesticidal activity in soil. […] The residual activity test were conducted using five to seven-day old housefly adults (Musca domestica).
# The soil mixture used was one part agricultural soil and three parts sand. The agricultural soil was stored in plastic bags in a freezer, immediately after removal from the field. This was done to reduce microbial multiplication. Two weeks prior to use, the soil was thawed and held at room temperature to allow microbial population to equilibrate. The sand and soil were sifted to remove clumps and debris and were then blended by rolling on a roller mill in a closed metal container. The moisture level was adjusted to 15% by weight.
# The concentration in the soil of the compound to be tested was four times the amount (in parts per million) necessary to achieve a mortality rate of 50% on contact with the soil (LD50). This is in accordance with the procedure developed by C. R. Harris of the Research Institute, Canadian Department of Agriculture, London, Ontario. Such procedure is disclosed in "Biological Activity of Chloropyrifos, Chlorpyrifor-Methyl, Phorate, and Counter® in Soil", The Canadian Entomologist, Vol. 109, pp. 1115-1120 (August 1977); and in "Laboratory Studies on the Persistance of Biological Activity of Some Insecticides in Soils", Journal of Economic Entomology, Vol. 62, No. 6, pp. 1437-1441 (December 1969).
# An appropriate amount of compound was dissolved in an acetone--Triton solution and was diluted with water. Five mililiters of the formulated chemical was applied to four ounces of soil mixture and rolled in a 16-ounce glass jar to blend the compound evenly with the soil. Ten mililiters of granular cane sugar was then mixed thoroughly with the treated soil in an eight-ounce plastic container.
# Twenty-five housefly adults, anesthetized with CO2, were then transferred to the soil and were covered with a perforated plastic lid. The test containers were held for 24 hours in a constant environment at a temperature of 80±5° F. and a relative humidity of […]. Mortality was based on the ability of the fly to move in a normal manner without spinning.
# The above process was repeated on treated soil which had been incubated at 25° C. and 90% relative humidity for 1, 4, 6 and 8 weeks after initial exposure. This was necessary because the soil is incubated without sugar, sugar being added at the time of reinfestation. For this reason, appropriate volumes of soil had to be treated at the start of the soil test to last for the expected residual period.
# [2] = tested on: bean aphid (Aphis fabae Scop.); assay: Bean aphid foliage spray test; design: key: A: excellent control; B: partial control; C: no control at 500 ppm; conditions: 500 parts per million, 24 hour
# Protocol: (§1) Suspensions of the test compounds were prepared by dissolving one gram of compound in 50 milliliters of acetone in which had been dissolved 0.1 gram (10 percent of the weight of compound) of an alkylphenoxy polyethoxyethanol surfactant, as an emulsifying or dispersing agent. The resulting solution was mixed into 150 milliliters of water to give roughly 200 milliliters of a suspension containing the compound in finely divided form. The thus-prepared stock suspension contained 0.5 percent by weight of compound. The concentrations in parts per million by weight employed in the tests described hereinbelow were obtained by appropriate dilutions of the stock suspension with water. The test procedures were as follows:
# Adults and nymphal stages of the bean aphid (Aphis fabae Scop.) reared on potted dwarf nasturtium plants at 68°-70° F. and 50±5 percent relative humidity, constituted the test insects. For testing purposes, the number of aphids per pot were standardized to 100-150 by trimming plants containing excess aphids.
# The test compounds were formulated by diluting the stock suspension with water to give a suspension containing 500 parts of test compound per million parts of final formulation.
# The potted plants (one pot per compound tested) infested with 100-150 aphids, were placed on a revolving turntable and sprayed with 100-110 milliliters of test compound formulation by use of a DeVilbiss spray gun set at 40 psig. air pressure. This application, which lasted 25 seconds, was sufficient to wet the plants to run-off. As a control, 100-110 milliliters of a water-acetone-emulsifier solution containing no test compound was also sprayed on infested plants. After spraying, the pots were placed on their sides on a sheet of white standard mimeograph paper which had been previously ruled to facilitate counting. Temperature and humidity in the test room during the 24 hour holding period were 68°-70° F. and 50±5 percent, respectively. Aphids which fell onto the paper and were unable to remain standing after being uprighted were considered dead. Aphids remaining on the plants were observed closely for movement and those which were unable to move the length of the body upon stimulation by prodding were considered dead.
# (§2) In these tests the pesticidal activity of the compounds at the indicated dosage rate against aphid, Southern Armyworm, Bean Beetle and housefly was rated as follows: […]
# [3] = tested on: southern armyworm (Spodoptera eridania, (Cram.)) larvae; assay: Southern armyworm leaf spray bait test; design: key: A: excellent control; B: partial control; C: no control at 500 ppm; conditions: 500 parts per million, three days
# Protocol: as §1
# Larvae of the southern armyworm (Spodoptera eridania, (Cram.)), reared on Tendergreen bean plants at a temperature of 80±5° F. and a reative humidity of 50±5 percent, constituted the test insects.
# The test compounds were formulated by diluting the stock suspension with water to give a suspension containing 500 parts of test compound per million parts of final formulation. Potted Tendergreen bean plants of standard height and age were placed on a revolving turntable and sprayed with 100-110 milliliters of test compound formulation by use of a DeVilbiss spray gun set at 40 psig air pressure. This application, which lasted 25 seconds, was sufficient to wet the plants to run-off. As a control, 100-110 milliliters of a water-acetone-emulsifier solution containing no test compound were also sprayed on infested plants. When dry, the paired leaves were separated and each one was placed in a 9 centimeter Petri dish lines with moistened filter paper. Five randomly selected larvae were introduced into each dish and the dishes were closed. The closed dishes were labeled and held at 80°-85° F. for three days. Although the larvae could easily consume the whole leaf within twenty-four hours, no more food was added. Larvae which were unable to move the length of the body, even upon stimulation by prodding, were considered dead.
# as §2
# [4] = tested on: egg of the Southern armyworm (Spodoptera eridania (Cram.)); assay: Southern armyworm ovicide test; design: key: A: excellent control; B: partial control; C: no control at 500 ppm; conditions: 500 parts per million, egg dip, four days
# Protocol: as §1
# The test organism was the egg of the Southern armyworm (Spodoptera eridania (Cram.)) as obtained from adults reared on Tendergreen bean plants at a temperature of 80±5° F. and a relative humidity of 50±5 percent. The eggs were laid on freezer paper (Marlon 717, Copco paper) and then cut into small sections containing one or two egg masses.
# The test compounds were formulated by diluting the stock suspension with water to give a suspension containing 500 parts of test compound per million parts of final formulation. The egg masses were then dipped until they were thoroughly wet (5-10 seconds). They were then placed on a paper towel face up and were allowed to dry for 15-30 minutes. The dry eggs were placed in a 15×60 mm petri dish containing a cotton dental wick saturated with a 5 percent sodium chloride solution to maintain a high level of humidity. The closed dishes were labeled and held at a temperature of 80±5° F. for four days. Larvae that emerged from the egg, even if dead at the time of observation, were recorded as hatched.
# as §2
# [5] = tested on: Mexican bean beetle (Epilachna varivestis, Muls.) larvae; assay: Mexican bean beetle leaf spray test; design: key: A: excellent control; B: partial control; C: no control at 500 ppm; conditions: 500 parts per million, fourth instar larvae, three days
# Protocol: as §1
# Fourth instar larvae of the Mexican bean beetle (Epilachna varivestis, Muls.), reared on Tendergreen bean plants at a temperature of 80±5° F. and 50±5° F. percent relative humdity, were the test insects.
# The test compounds were formulated by diluting the stock suspension with water to give a suspension containing 500 parts of test compound per million parts of final formulation. Tendergreen bean plants of standard height and age were placed on a revolving turntable and sprayed with 100-110 milliliters of test compound formulation by use of a DeVilbiss spray gun set at 40 psig air pressure. This application, which lasted 25 seconds, was sufficient to wet the plants to run-off. As a control, 100-110 milliliters of a water-acetone-emulsifier solution containing no test compound was also sprayed on infested plants. When dry, the paired leaves were separated and each was placed in a 9 centimeter Petri dish lined with moistened filter paper. Five randomly selected larvae were introduced into each dish, and the dishes were closed. The closed dishes were labeled and held at a temperature of 80±5° F., for three days. Although the larvae could easily consume the leaf within 24 to 48 hours, no more food was added. Larvae which were unable to move the length of the body, even upon stimulation, were considered dead.
# as §2
# [6] = tested on: house flies (Musca domestica, L.); assay: Fly bait test; design: key: A: excellent control; B: partial control; C: no control at 500 ppm; conditions: 500 parts per million, sugar bait, twenty-four hours
# Protocol: as §1
# Four to six day old adult house flies (Musca domestica, L.), reared according to the specifications of the Chemical Specialties Manufacturing Association (Blue Book, McNair-Dorland Co., N.Y. 1954; pages 243-244, 261) under controlled conditions of 80±5° F. and 50±5 percent relative humidity, were the test insects. The flies were immobilized by anesthetizing them with carbon dioxide. Twenty-five immobilized individuals, males and females, were transferred to a cage consisting of a standard food strainer about five inches in diameter which was inverted over a wrapping-paper-covered surface. The test compounds were formulated by diluting the stock suspension with a 10 percent (by weight) sugar solution to give a suspension containing 500 parts of test compound per million parts of final formulation, by weight. Ten milliliters of the test formulation were added to a souffle cup containing a one-inch square of an absorbent cotton pad. This bait cup was introduced and centered on the blotting paper under the food strainer prior to admitting the anesthetized flies. The caged flies were allowed to feed on the bait for twenty-four hours, at a temperature of 80±5° F. and at a relative humidity of 50±5 percent.
# as §2
# [7] = tested on: root-knot nematode, Meloidogyne incognita var. acrita; assay: Nematocide test; design: key: 1: severe galling, equal to untreated plants; 2: moderate galling; 3: light galling; 4: very light galling; 5: no galling, perfect control; conditions: 3.33 m.g. per jar, cucumber, approximately 3 weeks
# Protocol: The test organism used was the infective migratory larvae of the root-knot nematode, Meloidogyne incognita var. acrita, reared in the greenhouse on roots of cucumber plants. Infected plants were removed from the culture, and the roots were chopped very finely. A small amount of this inoculum was added to a pint jar containing approximately 180 cc. of soil. The jars were capped and incubated for one week at room temperature. During this period eggs of the nematode were hatched, and the larval forms migrated into the soil.
# Ten ml. of the test formulation were added to each of the two jars for each dosage tested. Following the addition of chemical, the jars were capped, and the contents thoroughly mixed on a ball mill for […].
# The test compounds were formulated by a standard procedure of solution in acetone addition of an emulsifier, and dilution with water. Primary screening tests were conducted at 3.33 m.g. of the test compound per jar.
# The jars were left capped at room temperature for a period of 48 hours, and the contents then transferred to 3 inch pots. Subsequently, the pots were seeded to cucumber as an indicator crop and placed in the greenhouse where they were cared for in the normal fashion for approximately 3 weeks.
# The cucumber plants were then taken from the pots, the soil removed from the roots, and the amount of galling visually rated.
# In the test for activity against nematodes activity was rated as follows: […]
Compound,"Residual effect in soil (mortality), 0 weeks [1]","Residual effect in soil (mortality), 1 week [1]","Residual effect in soil (mortality), 4 weeks [1]",Residual Activity (weeks) [1],"Aphids, pesticidal activity rating [2]","Southern Armyworm, pesticidal activity rating [3]","Southern Armyworm (egg), pesticidal activity rating [4]","Mexican Bean Beetle, pesticidal activity rating [5]","Housefly, pesticidal activity rating [6]","Root-Knot Nematode, galling rating [7]"
CSC(C)=NOC(=O)N(C)SN(C)C(=O)Oc1cc(C)c(C)c(C)c1 [B],100,100,0,less than 4 weeks,,,,,,
"CNC(=O)ON=C(C)SC [Methomyl, methyl N[[(methylamino)carbonyl]oxy]ethanimidothioate]",100,100,15,less than 4 weeks,,,,,,
COc1cc(C=O)ccc1OC(=O)N(C)SN(C)C(=O)ON=C(C)SC [Compound 5],,,,,A,A,B,A,A,2
CSC(C)=NOC(=O)N(C)SN(C)C(=O)Oc1ccc(C(=O)c2ccccc2)cc1 [Compound 6],,,,,A,A,A,A,A,4
CSC(C)=NOC(=O)N(C)SN(C)C(=O)Oc1cc(C)c(C)cc1C(C)=O [Compound 9],,,,,A,A,A,A,A,1
CSC(C)=NOC(=O)N(C)SN(C)C(=O)Oc1ccc(C(C)=O)c(C)c1 [Compound 7],,,,,A,A,A,A,A,5
CSC(C)=NOC(=O)N(C)SN(C)C(=O)Oc1cccc(C)c1 [A],100,100,23,less than 4 weeks,,,,,,
"CSC(C)=NOC(=O)N(C)SN(C)C(=O)Oc1ccc(C(=O)O)cc1 [Compound 4, S-Methyl-N-[[[N'-[[N""-[(4-hydroxycarbonylphenoxy)carbonyl]-N""-methylaminosulfenyl]]-N'-methylcarbamoyloxy]]]thioacetimidate]",,,,,B,A,,A,A,
